For 15 compounds, TGI and GI50 results are on record in PubChem BioAssay (NCI).

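Compound exposure: 48 hours, 5 concentrations, 96-well plates. Abbreviation: GI50, concentration required for 50% inhibition of growth. TGI: concentration producing complete growth inhibition.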 Bounds are passed on as bounds.

Experiment in all cases: NCI tumour cell line growth inhibition, 48 h
Assay [1] has as its system A549 NSCLC.
The subject of assay [2] is HT29 colon.
In assay [3] the test system is KM12 colon.
The subject of assay [4] is NCI-H226 lung.
The subject of assay [5] is NCI-H23 lung.
The subject of assay [6] is OVCAR-8 ovarian.
Assay [7] has as its system SNB-19 CNS.
For assay [8], the system named is UACC-257 melanoma.
In assay [9] the test system is SR leukemia.
For assay [10], the system named is HS 578T breast.

As to `COc1ccc(OC)c(N2CC(N)C2=O)c1` (centres undefined), the TGI in assay [1], in assay [2], in [3], in [4], in assay [5] and in [6] was above 100 µM in each case. Further, the TGI in assay [7] and in assay [8] was above 100 µM in each case.
`O=c1ccc2ccccc2cc1[O-].O=c1ccc2ccccc2cc1[O-].[O]=[U+2]=[O]`: the GI50 in assay [1] was 4.78 µM; in assay [2] it was 2.51 µM; in assay [3], 7.15 µM; in assay [5], 27.2 µM; in assay [6] it was 8.83 µM; in [8], 6.19 µM. Further, the TGI in assay [1] amounted to 56 µM; in assay [2] it was 6.97 µM; in assay [3], 69.7 µM; in [5], 90.7 µM; in [6] it was 59.9 µM; in assay [8] it was 44.3 µM.
Take `O=C1C=CC(=O)c2nc3c(cc21)CCC3`: the TGI in [1] was above 100 µM; in [2], above 100 µM; in [3] it was above 100 µM; in assay [5] it was 64.6 µM; in assay [6], 28.8 µM; in assay [7] it was above 100 µM. In addition, the TGI in assay [9] came out at 27 µM; in assay [8] it was 33.9 µM.
`CC(=O)NNc1nc(C)c(C(=O)/C=C/c2ccc(NC(C)=O)cc2)s1`: the TGI in [1], in assay [2], in [3], in assay [5], in [6] and in [7] was above 100 µM each time. In addition, the TGI in assay [8] is above 100 µM.
`CN(C)CC1CC/C(=C\c2ccc(O)cc2)C1=O` (centres undefined): the TGI came out at 40.9 µM in assay [1]; 40.9 µM in assay [10]; 11.5 µM in assay [2]; 16.6 µM in assay [3]; 25.6 µM in assay [4]; 13.2 µM in assay [5]. The TGI was 14.6 µM in [6], 31.3 µM in [7] and 11.3 µM in [8].
In the case of `CCCCN(CCCC)C(=O)C(=O)C(C(=O)c1ccc(OC)cc1)c1ccc(OC)cc1` (centres undefined), the TGI in assay [1], in assay [2], in assay [3], in [4], in assay [5] and in [6] was above 100 µM in each case. In addition, the TGI in [7] and in assay [8] was above 100 µM throughout.
With `O=C(/C=C/c1ccc([N+](=O)[O-])cc1)c1ccc(NCc2nc3ccccc3[nH]2)cc1`, the TGI turned out to be 12.3 µM in [2]; 3.47 µM in assay [3]; 15.3 µM in assay [5]; 12.9 µM in assay [6]; 14.5 µM in assay [7]; 8.15 µM in [9]. The compound further returned a TGI in [8] of 13.8 µM.
Consider `O=c1c(-c2ccccc2)c2oc(c1-c1ccccc1)CSCc1cccc(c1)CSC2`, for which the TGI in assay [1], in assay [2], in assay [3], in assay [4], in assay [5] and in assay [6] was above 100 µM each time. Besides, the TGI in [7] and in assay [8] was above 100 µM throughout.
Turning to `Oc1[nH]c2ccccc2c1N=Nc1nc(-c2ccc(Br)cc2)cs1`, the TGI in assay [1] was 70.8 µM; in assay [10] it was 65 µM; in assay [2] it was 32.9 µM; in assay [3], above 100 µM; in assay [5], above 100 µM; in assay [6], 35.8 µM. Moreover, the TGI in [7] worked out at 40.7 µM; in assay [8] it was 66.1 µM.
With `COc1nc(NC2OC(COC(C)=O)C(OC(C)=O)C(OC(C)=O)C2OC(C)=O)c2c(OC(C)=O)cc(=O)oc2n1` (centres undefined), the TGI in assay [1], in assay [2], in assay [3], in [4], in assay [5] and in assay [6] was above 100 µM in each case. Besides, the TGI in [7] and in [8] was above 100 µM each time.
As to `CCCCCCCCCCCCC(O)c1ccc(C#CCCCCCCCCCO)o1` (centres undefined), the GI50 in [1] is 16.9 µM; in assay [10] it was 23.8 µM; in assay [2], 69.9 µM; in assay [3] it was 20.5 µM; in assay [4], 21.2 µM; in assay [5], 26.4 µM. Further, the GI50 in assay [6] is 16.5 µM; in assay [7] it was 31.7 µM; in assay [8] it was 24.1 µM. Also, the TGI in assay [1] was 32.9 µM; in assay [10], 47.3 µM; in assay [2], above 100 µM; in assay [3], 39.9 µM; in [4], 37.9 µM; in assay [5], 48.8 µM. Also, the figures for the TGI in [6], in assay [7] and in assay [8] were 33.6 µM, 83.1 µM and 51 µM, respectively.
As for `CCc1c(OC(C)=O)c2c(NC3OCC(OC(C)=O)C(OC(C)=O)C3OC(C)=O)nc(SC)nc2oc1=O` (centres undefined), the TGI in assay [1], in [2], in assay [3], in assay [4], in assay [5] and in assay [6] was above 100 µM each time. Also, the TGI in assay [7] and in assay [8] was above 100 µM throughout.
As to `CC(=O)O/N=C(/C)c1ccccc1O`, the TGI in [1], in assay [2], in [3], in assay [4], in [5] and in [6] was above 100 µM throughout. Also, the TGI in [7] and in assay [8] was above 100 µM each time.
Regarding `C/C(CCn1[nH]c(=O)ccc1=O)=N\NC(=O)C(=O)NN`, the TGI in assay [1], in [2], in assay [3], in [4], in assay [5] and in assay [6] was above 100 µM throughout. Further, the TGI in assay [7] and in assay [8] was above 100 µM in each case.
Take `CC(C)=CCC(O)C1=CC(=O)c2c(O)ccc(O)c2C1=O` (centres undefined): the TGI was found to be 17.7 µM in assay [1]; 6.2 µM in assay [10]; 5.17 µM in assay [2]; 16.9 µM in [3]; 2.3 µM in assay [4]; 2.66 µM in assay [5]. Also, the results for the TGI in assay [6], in assay [7] and in assay [8] were 3.35 µM, 7.78 µM and 3.24 µM, respectively.
